Results: ChEMBL document CHEMBL5523769, “Discovery of Novel Nonpeptidic and Noncovalent Small Molecule 3CLpro Inhibitors as anti-SARS-CoV-2 Drug Candidate” (J Med Chem, 2024)
Activity calls are given as the source filed them. No cut-off for these calls is given here.

Experiments:
SARS-CoV-2 [1] = assay: Antiviral activity against SARS-CoV-2 omicron BA.5 variant infected in K18-hACE2 transgenic mouse model assessed as increase in body weight at 200 mg/kg, po pre-infected with virus for 2 hrs followed by twice daily compound administration and measured on day 4 in presence of ritonavir; assay type: functional, organism-based; details: Severe acute respiratory syndrome coronavirus 2, time 4.0 day
SARS-CoV-2 [2] = assay: microbe, parasite or virus in culture; details: Severe acute respiratory syndrome coronavirus 2, Delta, Vero C1008
SARS-CoV-2 [3] = assay: Antiviral activity against SARS-CoV-2 omicron BA.5 variant infected in K18-hACE2 transgenic mouse model assessed as log reduction in viral copies in lungs at 200 mg/kg, po pre-infected with virus for 2 hrs followed by twice daily compound administration and measured on day 2; assay type: functional, Severe acute respiratory syndrome coronavirus 2; details: time 2 day
SARS-CoV-2 [4] = assay: Antiviral activity against SARS-CoV-2 omicron BA.5 variant infected in K18-hACE2 transgenic mouse model assessed as inhibition of viral replication at 100 mg/kg, po pre-infected with virus for 2 hrs followed by twice daily compound administration and measured on day 2 to 4; assay type: functional, organism-based; details: Severe acute respiratory syndrome coronavirus 2, time 2-4 day
SARS-CoV-2 [5] = assay: Antiviral activity against SARS-CoV-2 omicron BA.5 variant infected in K18-hACE2 transgenic mouse model assessed as log reduction in viral copies in lungs at 200 mg/kg, po pre-infected with virus for 2 hrs followed by twice daily compound administration and measured on day 4; assay type: functional, Severe acute respiratory syndrome coronavirus 2; details: time 4 day
SARS-CoV-2 [6] = assay: Antiviral activity against SARS-CoV-2 omicron BA.5 variant infected in K18-hACE2 transgenic mouse model assessed as increase in body weight at 100 to 200 mg/kg, po pre-infected with virus for 2 hrs followed by twice daily compound administration and measured on day 4; assay type: functional, organism-based; details: Severe acute respiratory syndrome coronavirus 2, dose 100-200 mg/kg, time 4.0 day
SARS-CoV-2 [7] = assay: microbe, parasite or virus in culture; details: Severe acute respiratory syndrome coronavirus 2, Delta, Vero C1008; remark: listed apart in the source
SARS-CoV-2 [8] = assay: Antiviral activity against SARS-CoV-2 omicron BA.5 variant infected in K18-hACE2 transgenic mouse model assessed as increase in body weight at 50 mg/kg, po pre-infected with virus for 2 hrs followed by twice daily compound administration and measured on day 4 in presence of nirmatrelvir; assay type: functional, organism-based; details: Severe acute respiratory syndrome coronavirus 2, time 4.0 day

Question: `CC(C)(C)[C@H](NC(=O)C(F)(F)F)C(=O)N1C[C@H]2[C@@H]([C@H]1C(=O)N[C@H](C#N)C[C@@H]1CCNC1=O)C2(C)C` was tested. Which Activity (SARS-CoV-2 [1]) did it give?
Answer: Its Activity is “Active”.

Question: With `O=C(N[C@H]1CCCC[C@H]1Nc1c(C(=O)N2CCOCC2)cc(Br)cc1[N+](=O)[O-])c1cc(=O)[nH]c2ccccc12` as the compound, how does the EC50 (SARS-CoV-2 [2]) read?
Answer: The EC50 was 3.36 µM.

Question: `CNC(=O)c1cc(Br)cc([N+](=O)[O-])c1N[C@@H]1CCCC[C@@H]1NC(=O)c1cc(=O)[nH]c2c(F)cccc12` was tested. Which EC50 (SARS-CoV-2 [2]) did it give?
Answer: Its EC50 is 0.346 µM.

Question: `CN1CCN(C(=O)c2cc(Br)cc([N+](=O)[O-])c2N[C@@H]2CCCC[C@@H]2NC(=O)c2cc(=O)[nH]c3c(F)cccc23)CC1` was tested. Which EC50 (SARS-CoV-2 [2]) did it give?
Answer: Its EC50 is 0.272 µM.

Question: What about the “log(activity)” value (SARS-CoV-2 [3]) of the same compound?
Answer: Its value is 1.5.

Question: And the Activity (SARS-CoV-2 [4])?
Answer: The Activity was “Active”.

Question: What about the “log(activity)” value (SARS-CoV-2 [5]) of the same compound?
Answer: The value was 1.

Question: And the Activity (SARS-CoV-2 [6])?
Answer: The Activity was “Active”.

Question: Which EC50 (SARS-CoV-2 [2]) does the source give for `O=C(c1cc(=O)[nH]c2ccccc12)N1CCN(c2ccc(Cl)c(Cl)c2)CC1CN1CCOCC1` (centres undefined) here?
Answer: The EC50 was 7.24 µM.

Question: What about the EC50 (SARS-CoV-2 [7]) of the same compound?
Answer: Its EC50 is 7.24 µM.

Question: For `O=C(NCCC(F)(F)F)C1CN(c2ccc(Cl)c(Cl)c2)CCN1C(=O)c1cc(=O)[nH]c2ccccc12` (centres undefined), which EC50 (SARS-CoV-2 [2]) is on record?
Answer: Its EC50 is 17.7 µM.

Question: How did the Activity (SARS-CoV-2 [8]) turn out when `CC(C)c1nc(CN(C)C(=O)N[C@H](C(=O)N[C@@H](Cc2ccccc2)C[C@H](O)[C@H](Cc2ccccc2)NC(=O)OCc2cncs2)C(C)C)cs1` was run?
Answer: Its Activity is “Active”.

Question: How did the EC50 (SARS-CoV-2 [2]) turn out when `COc1ccc2[nH]c(=O)cc(C(=O)N[C@H]3CCCC[C@H]3Nc3c(C(=O)N4CCOCC4)cc(C4CC4)cc3[N+](=O)[O-])c2c1` was run?
Answer: The EC50 was 7.81 µM.

Question: How did the EC50 (SARS-CoV-2 [2]) turn out when `CNC(=O)c1cc(Br)cc([N+](=O)[O-])c1N[C@@H]1CCCC[C@@H]1NC(=O)c1cc(=O)[nH]c2ccc(F)cc12` was run?
Answer: Its EC50 is 2.44 µM.

Question: How did the EC50 (SARS-CoV-2 [2]) turn out when `O=C(N[C@H]1CCCC[C@H]1Nc1c(C(=O)N2CCOCC2)cc(C2CC2)cc1[N+](=O)[O-])c1cc(=O)[nH]c2ccccc12` was run?
Answer: The EC50 was 4.46 µM.

Question: With `CNC(=O)c1cc(C2CC2)cc([N+](=O)[O-])c1N[C@@H]1CCCC[C@@H]1NC(=O)c1cc(=O)[nH]c2ccccc12` as the compound, how does the EC50 (SARS-CoV-2 [2]) read?
Answer: The EC50 was 2.69 µM.

Question: For `O=C(NCCCC(F)(F)F)C1CN(c2ccc(Cl)c(Cl)c2)CCN1C(=O)c1cc(=O)[nH]c2ccccc12` (centres undefined), which EC50 (SARS-CoV-2 [2]) is on record?
Answer: Its EC50 is 3.95 µM.

Question: For `CNC(=O)c1cc(Br)cc([N+](=O)[O-])c1N[C@@H]1CCCC[C@@H]1NC(=O)c1cc(=O)[nH]c2ccccc12`, which EC50 (SARS-CoV-2 [2]) is on record?
Answer: The EC50 was 0.849 µM.

Question: `O=C(N[C@H]1CCCC[C@H]1Nc1c(C(=O)N2CCOCC2)cc(Br)cc1[N+](=O)[O-])c1cc(=O)[nH]c2c(F)cccc12` was tested. Which EC50 (SARS-CoV-2 [2]) did it give?
Answer: Its EC50 is 0.367 µM.
